target: T1, human FSH receptor (Homo sapiens, UniProt P23945); assay: Agonistic activity at the human FSH receptor expressed in CHO cells (CRE-luciferase reporter); type: cell-based; conditions: CHO cells stably transfected with human FSH receptor and CRE/luciferase reporter; tested 0.1 nM to 10 μM; read-out: EC50 (concentration of test compound causing half-maximal (50%) luciferase stimulation)
T1 construct: expressed in transfected cells; host or cells: Chinese Hamster Ovary (CHO) cells
T1 sequence (P23945 18-695): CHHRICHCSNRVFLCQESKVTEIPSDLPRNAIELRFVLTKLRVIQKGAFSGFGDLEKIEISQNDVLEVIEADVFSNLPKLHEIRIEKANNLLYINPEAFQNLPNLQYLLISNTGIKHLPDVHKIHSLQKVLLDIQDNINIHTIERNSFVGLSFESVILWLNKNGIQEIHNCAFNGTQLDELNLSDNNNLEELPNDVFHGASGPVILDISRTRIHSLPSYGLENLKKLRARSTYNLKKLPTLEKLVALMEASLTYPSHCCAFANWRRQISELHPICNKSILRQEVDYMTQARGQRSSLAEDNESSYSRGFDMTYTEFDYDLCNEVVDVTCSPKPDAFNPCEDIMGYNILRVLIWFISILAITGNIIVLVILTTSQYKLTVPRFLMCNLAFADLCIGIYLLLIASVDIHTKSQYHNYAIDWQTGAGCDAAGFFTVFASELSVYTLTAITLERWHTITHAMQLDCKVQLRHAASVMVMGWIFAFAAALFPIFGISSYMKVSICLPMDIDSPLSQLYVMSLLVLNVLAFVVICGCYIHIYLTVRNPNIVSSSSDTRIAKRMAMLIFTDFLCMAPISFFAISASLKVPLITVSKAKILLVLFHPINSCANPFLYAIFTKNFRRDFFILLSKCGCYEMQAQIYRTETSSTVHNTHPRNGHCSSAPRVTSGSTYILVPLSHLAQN
Method: Agonistic Activity of Compounds at the Human FSH Receptor Expressed in CHO Cells
Agonist activity of the compounds at the human FSH receptor was tested in Chinese Hamster Ovary (CHO) cells stably transfected with the human FSH receptor and cotransfected with a cAMP responsive element (CRE)/promotor directing the expression of a firefly luciferase reporter gene. Binding of the compound to the Gscoupled FSH receptor will result in an increase of cAMP, which in turn will induce an increased transactivation of the luciferase reporter construct. The luciferase activity was quantified using a luminescence counter. The compounds were tested in the concentration range of 0.1 nM to 10 μM. This assay was used to determine the EC50 (concentration of test compound causing half-maximal (50%) luciferase stimulation) and efficacy of the compounds compared to recombinant human FSH. For this, the software program XLfit (Excel version 2.0, built 30, ID Business Solutions Limited) was used.

EC50, < 10 nM:
CCCC1CC(=O)C2=C(C1)NC(C)=C(C#N)C2c1cc(Br)c(OCc2cccc(NC(=O)c3cc(OC)c(OC)c(OC)c3)c2)c(OCC)c1 (stereo not drawn) [Example 1, N-{3-[2-Bromo-4-(3-cyano-2-methyl-5-oxo-7-propyl-1,4,5,6,7,8-hexahydro-quinolin-4-yl)-6-ethoxy-phenoxymethyl]-phenyl}-3,4,5-trimethoxy-benzamide]
CCCC1CC(=O)C2=C(C1)NC(C)=C(C#N)C2c1cc(Br)c(OCc2cccc(NC(=O)CNCc3ccncc3)c2)c(OCC)c1 (stereo not drawn) [Example 3, N-{3-[2-Bromo-4-(3-cyano-2-methyl-5-oxo-7-propyl-1,4,5,6,7,8-hexahydro-quinolin-4-yl)-6-ethoxy-phenoxymethyl]-phenyl}-2-[(pyridin-4-ylmethyl)-amino]-acetamide]
CCCC1CC(=O)C2=C(C1)NC(C)=C(C#N)C2c1cc(Br)c(OCc2cccc(NC(=O)CN3CCN(CCO)CC3)c2)c(OCC)c1 (stereo not drawn) [Example 5, N-{3-[2-Bromo-4-(3-cyano-2-methyl-5-oxo-7-propyl-1,4,5,6,7,8-hexahydro-quinolin-4-yl)-6-ethoxy-phenoxymethyl]-phenyl}-2-[4-(2-hydroxy-ethyl)-piperazin-1-yl]-acetamide]
CCCC1CC(=O)C2=C(C1)NC(C)=C(C#N)C2c1cc(Br)c(OCc2cccc(C(=O)N3CC=CCC3)c2)c(OCC)c1 (stereo not drawn) [Example 7, 4-{3-Bromo-4-[3-(3,6-dihydro-2H-pyridine-1-carbonyl)-benzyloxy]-5-ethoxy-phenyl}-2-methyl-5-oxo-7-propyl-1,4,5,6,7,8-hexahydro-quinoline-3-carbonitrile]
CCCC1CC(=O)C2=C(C1)NC(C)=C(C#N)C2c1cc(Br)c(OCc2cccc(NC(=O)CCN(CCOC)CCOC)c2)c(OCC)c1 (stereo not drawn) [Example 11, 3-[Bis-(2-methoxy-ethyl)-amino]-N-{3-[2-bromo-4-(3-cyano-2-methyl-5-oxo-7-propyl-1,4,5,6,7,8-hexahydro-quinolin-4-yl)-6-ethoxy-phenoxymethyl]-phenyl}-propionamide]
CCCC1CC(=O)C2=C(C1)NC(C)=C(C#N)C2c1cc(Br)c(OCc2cccc(OCC(=O)N(C)C)c2)c(OCC)c1 (stereo not drawn) [Example 15, 2-{3-[2-Bromo-4-(3-cyano-2-methyl-5-oxo-7-propyl-1,4,5,6,7,8-hexahydro-quinolin-4-yl)-6-ethoxy-phenoxymethyl]-phenoxy}-N,N-dimethyl-acetamide]
CCCC1CC(=O)C2=C(C1)NC(C)=C(C#N)C2c1cc(Br)c(OCc2cccc(OCC(=O)N3CCOCC3)c2)c(OCC)c1 (stereo not drawn) [Example 17, 4-{3-Bromo-5-ethoxy-4-[3-(2-morpholin-4-yl-2-oxo-ethoxy)-benzyloxy]-phenyl}-2-methyl-5-oxo-7-propyl-1,4,5,6,7,8-hexahydro-quinoline-3-carbonitrile]
CCCC1CC(=O)C2=C(C1)NC(C)=C(C#N)C2c1cc(Br)c(OCc2ccccc2NC(=O)c2ccco2)c(OCC)c1 (stereo not drawn) [Example 22, Furan-2-carboxylic acid {2-[2-bromo-4-(3-cyano-2-methyl-5-oxo-7-propyl-1,4,5,6,7,8-hexahydro-quinolin-4-yl)-6-ethoxy-phenoxymethyl]-phenyl}-amide]
C=CC(=O)Nc1ccccc1COc1c(Br)cc(C2C(C#N)=C(C)NC3=C2C(=O)CC(CCC)C3)cc1OCC (stereo not drawn) [Example 23, N-{2-[2-Bromo-4-(3-cyano-2-methyl-5-oxo-7-propyl-1,4,5,6,7,8-hexahydro-quinolin-4-yl)-6-ethoxy-phenoxymethyl]-phenyl}-acrylamide]
CCCC1CC(=O)C2=C(C1)NC(C)=C(C#N)C2c1cc(Br)c(OCc2ccccc2NC(=O)C2CC2)c(OCC)c1 (stereo not drawn) [Example 24, Cyclopropanecarboxylic acid {2-[2-bromo-4-(3-cyano-2-methyl-5-oxo-7-propyl-1,4,5,6,7,8-hexahydro-quinolin-4-yl)-6-ethoxy-phenoxymethyl]-phenyl}-amide]
CCCC1CC(=O)C2=C(C1)NC(C)=C(C#N)C2c1cc(Br)c(OCc2ccccc2NC(=O)OC)c(OCC)c1 (stereo not drawn) [Example 25]
CCCC1CC(=O)C2=C(C1)NC(C)=C(C#N)C2c1cc(Br)c(OCc2ccccc2NC(=O)NC)c(OCC)c1 (stereo not drawn) [Example 34, 1-{2-[2-Bromo-4-(3-cyano-2-methyl-5-oxo-7-propyl-1,4,5,6,7,8-hexahydro-quinolin-4-yl)-6-ethoxy-phenoxymethyl]-phenyl}-3-methyl-urea]
CCCC1CC(=O)C2=C(C1)NC(C)=C(C#N)C2c1cc(Br)c(OCc2cccnc2NC(=O)OC)c(OCC)c1 (stereo not drawn) [Example 38, {3-[2-Bromo-4-(3-cyano-2-methyl-5-oxo-7-propyl-1,4,5,6,7,8-hexahydro-quinolin-4-yl)-6-ethoxy-phenoxymethyl]-pyridin-2-yl}-carbamic acid methyl ester]
CCCC1CC(=O)C2=C(C1)NC(C)=C(C#N)C2c1cc(Br)c(OCc2cccc(NS(C)(=O)=O)c2)c(OCC)c1 (stereo not drawn) [Example 42, N-{3-[2-Bromo-4-(3-cyano-2-methyl-5-oxo-7-propyl-1,4,5,6,7,8-hexahydro-quinolin-4-yl)-6-ethoxy-phenoxymethyl]-phenyl}-methanesulfonamide]
C=CCOC(=O)Nc1ccc(COc2c(Br)cc(C3C(C#N)=C(C)NC4=C3C(=O)CC(CCC)C4)cc2OCC)cc1 (stereo not drawn) [Example 50, {4-[2-Bromo-4-(3-cyano-2-methyl-5-oxo-7-propyl-1,4,5,6,7,8-hexahydro-quinolin-4-yl)-6-ethoxy-phenoxymethyl]-phenyl}-carbamic acid allyl ester]
CCCC1CC(=O)C2=C(C1)NC(C)=C(C#N)C2c1cc(Br)c(OCc2cccn2S(C)(=O)=O)c(OCC)c1 (stereo not drawn) [Example 51, 4-[3-Bromo-5-ethoxy-4-(1-methanesulfonyl-1H-pyrrol-2-ylmethoxy)-phenyl]-2-methyl-5-oxo-7-propyl-1,4,5,6,7,8-hexahydro-quinoline-3-carbonitrile]
CCCC1CC(=O)C2=C(C1)NC(C)=C(C#N)C2c1cc(Br)c(OCc2ccc(C(=N)NC)cc2)c(OCC)c1 (stereo not drawn) [Example 54, 4-[2-Bromo-4-(3-cyano-2-methyl-5-oxo-7-propyl-1,4,5,6,7,8-hexahydro-quinolin-4-yl)-6-ethoxy-phenoxymethyl]-N-methyl-benzamidine]
CCCC1CC(=O)C2=C(C1)NC(C)=C(C#N)C2c1cc(Br)c(NCc2cccnc2)c(OCC)c1 (stereo not drawn) [Example 56, 4-{3-Bromo-5-ethoxy-4-[(pyridin-3-ylmethyl)-amino]-phenyl}-2-methyl-5-oxo-7-propyl-1,4,5,6,7,8-hexahydro-quinoline-3-carbonitrile]
CCCC1CC(=O)C2=C(C1)NC(C)=C(C#N)C2c1cc(Br)c(NCc2ccccc2NS(C)(=O)=O)c(OCC)c1 (stereo not drawn) [Example 58, N-(2-{[2-Bromo-4-(3-cyano-2-methyl-5-oxo-7-propyl-1,4,5,6,7,8-hexahydro-quinolin-4-yl)-6-ethoxy-phenylamino]-methyl}-phenyl)-methanesulfonamide]
CCCC1CC(=O)C2=C(C1)NC(C)=C(C#N)C2c1cc(Br)c(OCc2ccccc2NCC2CC2)c(OCC)c1 (stereo not drawn) [Example 62, 4-{3-Bromo-4-[2-(cyclopropylmethyl-amino)-benzyloxy]-5-ethoxy-phenyl}-2-methyl-5-oxo-7-propyl-1,4,5,6,7,8-hexahydro-quinoline-3-carbonitrile]
CCC[C@@H]1CC(=O)C2=C(C1)NC(C)=C(C#N)[C@H]2c1cc(Br)c(OCc2cc(F)c(F)cc2NS(C)(=O)=O)c(OCC)c1 [Example 72, N-{2-[2-Bromo-4-((4R,7S)-3-cyano-2-methyl-5-oxo-7-propyl-1,4,5,6,7,8-hexahydro-quinolin-4-yl)-6-ethoxy-phenoxymethyl]-4,5-difluoro-phenyl}-methanesulfonamide]
